According to patent publication US20030036049A1, “Optical method for testing sensitivity of cells” (MEDIS EL LTD., priority 2001, published 2003):

Columns and labels:
[1] = test system: T47D human breast cancer cells; experiment: Rh123 fluorescence intensity, Electro-optical scanner (CellScan); type: cell-based
Method: (§1) About 2×10^5 cells were plated on 6 well-plates and left overnight to adhere. Two different concentrations of different drugs were added for a period of 24, 48 and 72 hours and then cells were harvested with trypsin, centrifuged, and resuspended in culture medium until staining.
(§2) Cell staining and loading: Three samples were prepared for each treatment at a specific time point and stained each with a different dye: fluorescein diacetate (FDA), rhodamine 123 (Rh123), and acridine orange (AO). […]
Rh123 (1 microgram/milliliter final concentration) was added to cells suspended in culture medium for 30 minutes at 37° C. Then the cells were washed twice with cold PBS supplemented with Mg^+2 and Ca^+2, loaded on the cell carrier and fluorescence intensity and polarization were measured by an Argon laser-based Electro-optical scanner. […]
(§3) For the excitation of FDA-stained cells an He/Cd laser was utilized (442 nm, excitation power of 4.5 microwatt) and emission measured at 527 nm. For the detection of AO and Rh123-stained cells an Argon laser was utilized (488 nm, excitation power of 15 microwatt) and emission measured at 530 nm.
(§4) The fluorescence emission of an area containing 20×20 wells was measured using a preset photon counting mode in which the same number of photons is counted for each cell (10,000), canceling differences in precision from strong and weak-emitting cells. […]

[2] = test system: T47D human breast cancer cells; experiment: AO fluorescence intensity, Electro-optical scanner (CellScan); type: cell-based; conditions: FIG. 6 panels 195-197
Method: as §1
(§5) Cell staining and loading: Three samples were prepared for each treatment at a specific time point and stained each with a different dye: fluorescein diacetate (FDA), rhodamine 123 (Rh123), and acridine orange (AO).
(§6) AO is usually used as a direct probe for nucleic acids in fixed or permeabilized cells. When used under appropriate conditions of concentration and pH it gives bright green fluorescence when bound to double-stranded DNA and red deep fluorescence when bound to single strand RNA and can serve for estimation of cellular DNA content and transcriptional activity. AO was added directly to the cell carrier loaded with cells for 5 minutes at a final concentration of 10 microgram/milliliter, washed twice directly on the grid and measured on an Argon laser-based Electro-optical scanner. […]
(§7) For the excitation of FDA-stained cells an He/Cd laser was utilized (442 nm, excitation power of 4.5 microwatt) and emission measured at 527 nm. For the detection of AO and Rh123-stained cells an Argon laser was utilized (488 nm, excitation power of 15 microwatt) and emission measured at 530 nm. […]

[3] = test system: T47D human breast cancer cells; experiment: Viable cell count on hemocytometer with trypan blue exclusion; type: cell-based; conditions: low and high doses, 24, 48, 72 hours, FIG. 2 panel 181
Method: (§8) Cell culture: T80 and T47D human breast cancer cells were routinely cultured in DMEM supplemented with 10% fetal calf serum (FCS) (Biological Industries, Beit Haemek, Israel), 4 mM glutamine (Biological Ind.), 100 u/ml penicillin, 0.1 milligram/milliliter streptomycin, 12.5 units/milliliter nystatin (Biological Ind.) and 0.2 units/milliliter insulin (Lilly, Fegersheim, France).
as §1
(§9) Navelbine and 5-Fluorouracil (5FU) where added at low and high doses to T80 and T47D cells respectively for 24, 48, and 72 hours. The cells were counted on a hemocytometer, using trypan blue for exclusion of dead cells, for the purpose of Electro-optical scanner -independent estimation of drug efficacy.

[4] = test system: T47D human breast cancer cells; experiment: FDA fluorescence polarization, Electro-optical scanner (CellScan); type: cell-based; conditions: FIG. 5 panel 191
Method: as §1, §2
(§10) Cells in suspension were stained for 5 minutes with FDA at a final concentration of 2.4 micromolar. The cells were then loaded on the cell carrier, washed twice with PBS supplemented with Mg^+2 and Ca^+2, and fluorescence intensity and polarization were measured by an He/Cd laser-based CellScan™ electro-optical scanner. […]
as §3, §4

[5] = test system: T80 human breast cancer cells; experiment: AO fluorescence intensity, Electro-optical scanner (CellScan); type: cell-based; conditions: one day after starting treatment, FIG. 6 panels 192-194
Method: as §1, §5, §6, §7

[6] = test system: T80 human breast cancer cells; experiment: Viable cell count on hemocytometer with trypan blue exclusion; type: cell-based; conditions: low and high doses, 24, 48, 72 hours, FIG. 2 panel 180
Method: as §8, §1, §9

[7] = test system: T80 human breast cancer cells; experiment: FDA fluorescence polarization, Electro-optical scanner (CellScan); type: cell-based; conditions: FIG. 5 panel 190
Method: as §1, §2, §10, §3, §4

[8] = test system: T80 human breast cancer cells; experiment: Rh123 fluorescence intensity, Electro-optical scanner (CellScan)

Structure (SMILES) | change in Rh123 fluorescence intensity versus control untreated cells ([1]; FIG. 3 panel 183) | change of mean fluorescence intensity of Rh123 stained cells, measured one-cell-at-a-time ([1]; FIG. 4 panels 187-189) | change of mean fluorescence intensity of AO stained cells, measured one-cell-at-a-time [2] | effect on number of viable cells counted (trypan blue exclusion) [3] | change of mean polarization of FDA fluorescence [4] | change of mean fluorescence intensity of AO stained cells, measured one-cell-at-a-time [5] | effect on number of viable cells counted (trypan blue exclusion) [6] | change of mean polarization of FDA fluorescence [7] | change in Rh123 fluorescence intensity versus control untreated cells ([8]; FIG. 3 panel 182) | change of mean fluorescence intensity of Rh123 stained cells, measured one-cell-at-a-time ([8]; one day after starting treatment, FIG. 4 panels 184-186)
O=c1[nH]cc(F)c(=O)[nH]1 [5FU, 5-Fluorouracil] | no significant change in fluorescence intensity | no significant change of mean fluorescence intensity | no significant change of mean fluorescence intensity | mild and not significant effects | no significant change of mean fluorescence polarization | – | – | – | – | –
CCC1=C[C@@H]2CN(C1)Cc1c([nH]c3ccccc13)[C@@](C(=O)OC)(c1cc3c(cc1OC)N(C)[C@H]1[C@@](O)(C(=O)OC)[C@H](OC(C)=O)[C@]4(CC)C=CCN5CC[C@]31[C@@H]54)C2 [Navelbine] | – | – | – | – | – | decrease of mean fluorescence intensity | cytotoxic effect | increase of mean polarization | decrease in Rh123 fluorescence intensity is obvious and markedly significant | decrease of mean fluorescence intensity
